Results on two compounds are retold here after US8859466B2, “Oxaspirocyclic spiro-substituted tetramic acid and tetronic acid derivatives” (Bayer CropScience AG, priority 2007, dated 2014).

The test system of one data set is Summer wheat. Kind of data set: Herbicidal post-emergence action with use of safeners, container trials with cereal in a greenhouse. As to conditions: 28 days after application. In kind it is in vivo. As for the experimental part: (§1) 1. Herbicidal Post-Emergence Action • Seeds of monocotyledonous and dicotyledonous weed and crop plants are placed in sandy loam in wood fibre pots or in plastic pots, covered with soil and cultivated in a greenhouse, during the vegetation period also outdoors outside of the greenhouse, under good growth conditions. 2 to 3 weeks after sowing, the test plants are treated at one- to three-leaf stage. The test compounds, formulated as wettable powders (WP) or liquid (EC) are, at a water application rate of 300 l/ha (converted), with wetting agent (0.2 to 0.3%) added, sprayed at various dosages onto the plants and the surface of the soil. 3 to 4 weeks after treatment of the test plants, the effect of the preparations is rated visually in comparison to untreated controls (herbicidal activity in percent: 100% activity=the plants have died, 0% activity=like control plants).
(§2) Use of Safeners: • If it is additionally to be tested as to whether safeners can improve the plant compatibility of test substances in the case of crop plants, the following options are used for applying the safeners: • seeds of the crop plants are, before sowing, dressed with the safener substance (the amount of safener stated in percent, based on the weight of the seed) • before application of the test substances, the crop plants are sprayed with the safener at a certain application rate per hectare (usually 1 day before the application of the test substances) • the safener is applied together with the test substance as a tank mix (the amount of safener stated in g/ha or as a ratio, based on the herbicide). • Container trials with cereal in a greenhouse • mefenpyr 1 day prior to herbicide application

In a further data set the test system is cereal. Kind of data set: Herbicidal post-emergence action with use of safeners, container trials with cereal in a greenhouse (other cereal crop plants). As to conditions: 10 days after application. In kind it is in vivo. As to the method: as §1, §2

Structures are written as SMILES.

`CCc1cc(Cl)cc(OC)c1C1=C(O)C2(CCC3(CCCO3)CC2)NC1=O` (mixture of isomers) [Example I-1-a-11]: the “Summer wheat observed (%)” value is given as 65% in the data set with Summer wheat (12.5 g of a.i./ha), 70% in the data set with Summer wheat (25 g of a.i./ha), 80% in the data set on Summer wheat (50 g of a.i./ha) and 95% in the data set with Summer wheat (100 g of a.i./ha).

On to `COc1cc(C)cc(Cl)c1C1=C(O)C2(CCC3(CCCO3)CC2)NC1=O` (mixture of isomers) [Example I-1-a-13], for which the “Summer barley observed (%)” value with cereal (12.5 g of a.i./ha) turned out to be 20%; in the data set on cereal (25 g of a.i./ha) it was 20%; in the data set on cereal (50 g of a.i./ha), 30%.
